Source: patent US7470715B2, “Estrogen modulators” (Pfizer Inc., priority 2005, dated 2008)
Several values for one entry are separate records, joined by “and”; a condition that tells them apart may be missing. Equal entries are not always repeated.

How the values were obtained:
[1] = target: T1, ligand binding domain of the estrogen receptor alpha chain (ERαLBD) (Homo sapiens, UniProt P03372); experiment: ER agonist cell assay (ERα), Huh-7 co-transfection, luciferase; type: cell-based; conditions: for EC50: Huh-7 cells co-transfected with pG5luc and ERαLBD, overnight incubation, luciferase; for ERα % of Max E2 Response: percent of the maximum estradiol fold change, Huh-7, pG5luc and ERαLBD
T1 construct: expressed in transfected cells; host or cells: Huh-7 human hepatoma cells, transient transfection with FuGENE 6
T1 sequence (P03372 311-547 limits assumed): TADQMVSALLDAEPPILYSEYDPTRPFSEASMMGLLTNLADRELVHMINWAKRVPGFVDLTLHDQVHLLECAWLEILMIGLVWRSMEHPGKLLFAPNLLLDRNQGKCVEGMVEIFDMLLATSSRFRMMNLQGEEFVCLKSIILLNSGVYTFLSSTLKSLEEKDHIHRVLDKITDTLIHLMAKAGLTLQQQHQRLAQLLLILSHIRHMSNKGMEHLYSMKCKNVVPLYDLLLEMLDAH

[2] = target: ligand binding domain of the estrogen receptor beta chain (ERβLBD) that contained a point mutation at amino acid residue 418 (pm418) (Homo sapiens, UniProt Q92731); experiment: ER agonist cell assay (ERβ), Huh-7 co-transfection, luciferase; type: cell-based; conditions: for EC50: Huh-7 cells co-transfected with pG5luc and ERβLBD(pm418), overnight incubation, luciferase; for ERβ % of Max E2 Response: percent of the maximum estradiol fold change, Huh-7, pG5luc and ERβLBD(pm418)
[3] = tested on: hairless female SKH, 1-hr mice; experiment: Animal model for reversal of wrinkles: skin thickness model, topical dosing, skin thickness and hyaluronic acid; type: in vivo, mouse; conditions: three days
Description: Animal Model for Reversal of Wrinkles
Uzuka et al. describes an increase in mouse back skin water content, hyaluronic acid (HA) content, and hyaluronic acid synthetase activity following topical application or subcutaneous injection of estradiol (Biochimica et Biophysica Acta, 627, 199-206, 1980; Biochimica et Biophysica Acta 673, 387-393, 1981). […] Thus, this model may be used to as a preliminary screen to assess the potential for estrogen modulators to alleviate wrinkles in human skin.
The skin thickness model uses hairless female SKH, 1-hr mice. Mice aged to approximately 11 weeks are introduced into the laboratory environment and acclimated for at least 1 week prior to use in the study may be used. Each group typically consisted of 7 animals that may be run in parallel with vehicle and the positive control estradiol. Based on binding and/or cellular assay data, compounds are chosen for screening in this model. Those compounds include the products of Examples, 2, 9, 15, 46, 47, 48, 51, 52, 61, 135, and 137. Prior to topical application to mouse dorsal skin, a sufficient quantity of each compound is dissolved in a solvent generally consisting of ethanol and propylene glycol (70/30% v/v) (vehicle) to achieve the final concentration specified in Table C below. Animals are dosed topically QD or BID, for three days. Each dose consisted of 100 microliters of vehicle or drug applied uniformly to the entire dorsal surface (˜18 cm^2). All animals are sacrificed approximately 18-24 hours after the final dose. Skin thickness (ST) is measured using a caliper. HA is extracted from the skin and quantitated using commercially-available enzyme-linked immunosorbent assays (ELISAs)(HA).
Data are presented as percent of the estradiol response after subtracting out the ST for vehicle-treated mouse skin. The estradiol response is set to 100% and the vehicle resoibse becines 0%.

[4] = 1% topical, BID, vehicle 0%, estradiol 100%

Row | EC50 [1] [nM] | ERα % of Max E2 Response [1] [%] | EC50 [2] [nM] | ERβ % of Max E2 Response [2] [%] | melting point [°C] | SMILES | ST (skin thickness), percent of the estradiol response [3, 4] | HA (hyaluronic acid), percent of the estradiol response ([3]; 1% topical, QD) | ST (skin thickness), percent of the estradiol response ([3]; 1% topical, QD) | HA (hyaluronic acid), percent of the estradiol response ([3]; 0.5% topical, BID) | ST (skin thickness), percent of the estradiol response ([3]; 0.5% topical, BID) | other results
1 | 22.4 | 92 | 144 | 87.4 | 175 to 176 | CCC(O)C1(c2onc(-c3ccc(O)cc3)c2-c2ccccc2)CC1 (racemic) [Example 47, (±)-4-{5-[1-(1-Hydroxy-propyl)-cyclopropyl]-4-phenyl-isoxazol-3-yl}-phenol] | 53% |  |  |  |  | HA (hyaluronic acid), percent of the estradiol response [3, 4]: 59%
2 |  |  |  |  | 210 to 211 | OCC1(c2onc(-c3ccc(O)cc3)c2-c2ccccc2)CC1 [Example 2, 4-[5-(1-Hydroxymethyl-cyclopropyl)-4-phenyl-isoxazol-3-yl]-phenol] |  | 15% | 19% |  |  | 
3 | 33.1 | 106 | 43.2 | 99.7 | 219 to 221 | C[C@@H](O)C1(c2onc(-c3ccc(O)cc3)c2-c2ccccc2)CC1 [Example 46, (R)-(−)-4-{5-[1-(1-Hydroxy-ethyl)-cyclopropyl]-4-phenyl-isoxazol-3-yl}-phenol] |  | 48% | 36% | 39% and 68% and 76% | 53% and 71% and 73% | HA (hyaluronic acid), percent of the estradiol response ([3]; 0.015% topical, BID): 11%; ST (skin thickness), percent of the estradiol response ([3]; 0.015% topical, BID): 20%; HA (hyaluronic acid), percent of the estradiol response ([3]; 0.05% topical, BID): 52%; ST (skin thickness), percent of the estradiol response ([3]; 0.05% topical, BID): 47%; HA (hyaluronic acid), percent of the estradiol response ([3]; 0.15% topical, BID): 55%; ST (skin thickness), percent of the estradiol response ([3]; 0.15% topical, BID): 65%
4 | 31.3 | 88.8 | 84.7 | 71.8 | 163 to 164 | CC[C@@H](O)C1(c2onc(-c3ccc(O)cc3)c2-c2ccccc2)CC1 [Example 48, (R)-(−)-4-{5-[1-(1-Hydroxy-propyl)-cyclopropyl]-4-phenyl-isoxazol-3-yl}-phenol] | 72% and 89% | 47% and 42% | 64% and 41% | 84% | 78% | HA (hyaluronic acid), percent of the estradiol response ([3]; 0.03% topical, BID): 26%; ST (skin thickness), percent of the estradiol response ([3]; 0.03% topical, BID): 33%; HA (hyaluronic acid), percent of the estradiol response ([3]; 0.03% topical, QD): 18%; ST (skin thickness), percent of the estradiol response ([3]; 0.03% topical, QD): 13%; HA (hyaluronic acid), percent of the estradiol response ([3]; 0.1% topical, BID): 63%; ST (skin thickness), percent of the estradiol response ([3]; 0.1% topical, BID): 58%; HA (hyaluronic acid), percent of the estradiol response ([3]; 0.1% topical, QD): 32%; ST (skin thickness), percent of the estradiol response ([3]; 0.1% topical, QD): 29%; HA (hyaluronic acid), percent of the estradiol response ([3]; 0.3% topical, BID): 96%; ST (skin thickness), percent of the estradiol response ([3]; 0.3% topical, BID): 80%; HA (hyaluronic acid), percent of the estradiol response ([3]; 0.3% topical, QD): 41%; ST (skin thickness), percent of the estradiol response ([3]; 0.3% topical, QD): 57%
5 | 12.9 | 23.3 | > 10000 | >3.71 | 109 to 110 | CC(C)COC(=O)C1(c2onc(-c3ccc(O)cc3)c2-c2ccccc2)CC1 [Example 60, 1-[3-(4-Hydroxy-phenyl)-4-phenyl-isoxazol-5-yl]-cyclopropanecarboxylic acid isobutyl ester] |  |  |  |  |  | 
6 | 38.4 | 45.3 |  | 0.679 | 169 to 170 | Oc1ccc(-c2noc(C3(C(O)(C4CC4)C4CC4)CC3)c2-c2ccccc2)cc1 [Example 99, 4-{5-(1-(Dicyclopropyl-hydroxy-methyl)-cyclopropyl]-4-phenyl-isoxazol-3-yl}-phenol] |  |  |  |  |  | 
